pIC50: −log10 of the molar value.
Assays:
Format in all cases: cell-based
MRC-5 cell line = test: Cell viability assay for MRC-5 cell line (EZ-Cytox); details: Homo sapiens, MRC5, 120 h; MRC-5 normal cell line, 5 days, 10000 nM to 1.52 nM; N.D. = no cytotoxicity until 10 μM; read-out: Activity: IC50 value of Exemplary Compound to MRC-5 cell line
Experimental: 4. Cell Viability Assay for MRC-5 Cell Line
(1) Culture of MRC-5 Cell Line
Passage of cultured cells was maintained within P15.
(2) Treatment of Compounds of the Present Invention
Then, it was cultured in 37° C.
(3) Cytotoxicity Experiment
CO2 incubator for 4 hours.

PLK1 = molecular target: T1, PLK1 (Homo sapiens, UniProt P53350); test: Luciferase assay for PLK1 in HeLa LgBit (Plk1-HiBit KI) cell line; details: 300 nM compound, luminescence after 9 hours
T1 construct: endogenous in cells; host or cells: HeLa LgBit (Plk1-HiBit KI): HeLa stably expressing LgBit, with a CRISPR/Cas9 knock-in of HiBit at the endogenous PLK1 locus
How it was run: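 Luminescence, followed in real time after adding compound at 300 nM and Endurazine substrate, is reported relative to DMSO-treated wells. Cells are a HeLa LgBit line with a Plk1-HiBit knock-in, synchronized by 2 mM thymidine for 24 h, released, and cultured 18 h before treatment.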

NCI-H526 cell line = test: Cell viability assay for H526 cell (EZ-Cytox); details: Homo sapiens, NCI-H526, 120 h; H526 cells, 5 days, 3000 nM to 0.46 nM
Experimental: (1) Culture of NCI-H526 Cell Line
(2) Treatment of Compounds of the Present Invention and Method of Cell Viability Assay
After treating the compound to each well to make the total volume of 200 μL, it was cultured in a CO2 incubator (Thermo Fisher Science, Cat. No. 4111) for 5 days.
The absorbance of the completely cultured sample was measured by setting the wavelength of a plate reader (BMG Labtech, CLARIOstar Plus) to […], and was measured after shaking for 3 minutes in a plate reader before measurement.
In Table 3, Activity represents IC50 value of each Exemplary Compound treatment group to H526 cell line (A: <30 nM, B: <50 nM, C: <100 nM, D: <200 nM, E: <400 nM).

T1 sequence (P53350 whole entry): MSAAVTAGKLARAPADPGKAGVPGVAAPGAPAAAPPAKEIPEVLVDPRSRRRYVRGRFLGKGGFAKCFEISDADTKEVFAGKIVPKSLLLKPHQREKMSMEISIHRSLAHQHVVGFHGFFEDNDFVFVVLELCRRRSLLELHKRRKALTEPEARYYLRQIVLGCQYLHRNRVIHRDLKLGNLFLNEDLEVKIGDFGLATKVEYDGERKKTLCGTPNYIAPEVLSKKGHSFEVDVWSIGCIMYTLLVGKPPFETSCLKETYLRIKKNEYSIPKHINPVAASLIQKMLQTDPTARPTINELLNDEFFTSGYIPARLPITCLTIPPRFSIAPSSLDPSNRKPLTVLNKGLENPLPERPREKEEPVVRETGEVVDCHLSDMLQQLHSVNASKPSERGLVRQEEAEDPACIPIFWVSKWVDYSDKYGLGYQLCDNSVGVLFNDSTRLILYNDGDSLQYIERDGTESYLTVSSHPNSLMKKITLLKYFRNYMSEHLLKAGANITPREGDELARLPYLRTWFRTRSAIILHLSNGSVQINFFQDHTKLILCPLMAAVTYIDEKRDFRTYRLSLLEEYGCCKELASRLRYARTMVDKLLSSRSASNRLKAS

Row | Activity: ratio of the luminescense value of each Exemplary Compound treatment group to DMSO treatment group (PLK1) | Structure (SMILES) | pIC50 (MRC-5 cell line) | pIC50 (NCI-H526 cell line)
1 | +++ (+++: <0.3) | COc1cc(C(=O)NC2CCN(C(=O)CCN3CCN(c4cccc5c4C(=O)N(C4CCC(=O)NC4=O)C5=O)CC3)CC2)ccc1Nc1ncc2c(n1)N(C1CCCC1)CC1(CC1)C(=O)N2C (stereo not shown) [Compound 120, 4-((9′-cyclopentyl-5′-methyl-6′-oxo-5′,6′,8′,9′-tetrahydrospiro[cyclopropane-1,7′-pyrimido[4,5-b][1,4]diazepin]-2′-yl)amino)-N-(1-(3-(4-(2-(2,6-dioxopiperidin-3-yl)-1,3-dioxoisoindolin-4-yl)piperazin-1-yl)propanoyl)piperidin-4-yl)-3-methoxybenzamide] | < 5.00 | > 7.30
2 | +++ (+++: <0.3) | COc1cc(C(=O)NN2CCN(C(=O)CCC3CCN(c4cccc5c4C(=O)N(C4CCC(=O)NC4=O)C5=O)CC3)CC2)ccc1Nc1ncc2c(n1)N(C1CCCC1)CC(F)(F)C(=O)N2C (stereo not shown) [Compound 76, 4-((9-cyclopentyl-7,7-difluoro-5-methyl-6-oxo-6,7,8,9-tetrahydro-5H-pyrimido[4,5-b][1,4]diazepin-2-yl)amino)-N-(4-(3-(1-(2-(2,6-dioxopiperidin-3-yl)-1,3-dioxoisoindolin-4-yl)piperidin-4-yl)propanoyl)piperazin-1-yl)-3-methoxybenzamide] | < 5.00 | > 7.00
3 | ++ (++<0.6) | COc1cc(C(=O)NC2CCN(C(=O)COc3cccc4c3C(=O)N(C3CCC(=O)NC3=O)C4=O)CC2)ccc1Nc1ncc2c(n1)N(C1CCCC1)CC(F)(F)C(=O)N2C (stereo not shown) [Compound 38, 4-((9-cyclopentyl-7,7-difluoro-5-methyl-6-oxo-6,7,8,9-tetrahydro-5H-pyrimido[4,5-b][1,4]diazepin-2-yl)amino)-N-(1-(2-((2-(2,6-dioxopiperidin-3-yl)-1,3-dioxoisoindolin-4-yl)oxy)acetyl)piperidin-4-yl)-3-methoxybenzamide] | < 5.00 | > 6.70
4 | ++ (++<0.6) | COc1cc(C(=O)NN2CCC(N3CC4(CCN(c5ccc6c(c5)C(=O)N(C5CCC(=O)NC5=O)C6=O)CC4)C3)CC2)ccc1Nc1ncc2c(n1)N(C1CCCC1)CC(F)(F)C(=O)N2C (stereo not shown) [Compound 212, 4-((9-cyclopentyl-7,7-difluoro-5-methyl-6-oxo-6,7,8,9-tetrahydro-5H-pyrimido[4,5-b][1,4]diazepin-2-yl)amino)-N-(4-(7-(2-(2,6-dioxopiperidin-3-yl)-1,3-dioxoisoindolin-5-yl)-2,7-diazaspiro[3.5]nonan-2-yl)piperidin-1-yl)-3-methoxybenzamide] | < 5.00 | > 7.52
5 | ++ (++<0.6) | COc1cc(C(=O)NN2CCC(N3CC4(CCN(c5cc6c(cc5F)C(=O)N(C5CCC(=O)NC5=O)C6=O)CC4)C3)CC2)c(F)cc1Nc1ncc2c(n1)N(C(C)C)CC(F)(F)C(=O)N2C (stereo not shown) [Compound 217, 4-((7,7-difluoro-9-isopropyl-5-methyl-6-oxo-6,7,8,9-tetrahydro-5H-pyrimido[4,5-b][1,4]diazepin-2-yl)amino)-N-(4-(7-(2-(2,6-dioxopiperidin-3-yl)-6-fluoro-1,3-dioxoisoindolin-5-yl)-2,7-diazaspiro[3.5]nonan-2-yl)piperidin-1-yl)-2-fluoro-5-methoxybenzamide] | 4.78 | > 6.40
6 | ++ (++<0.6) | COc1cc(C(=O)NN2CCC(CN3CCN(c4ccc5c(c4)C(=O)N(C4CCC(=O)NC4=O)C5=O)CC3)CC2)ccc1Nc1ncc2c(n1)N(C1CCCC1)CC(F)(F)C(=O)N2C (stereo not shown) [Compound 148, 4-((9-cyclopentyl-7,7-difluoro-5-methyl-6-oxo-6,7,8,9-tetrahydro-5H-pyrimido[4,5-b][1,4]diazepin-2-yl)amino)-N-(4-((4-(2-(2,6-dioxopiperidin-3-yl)-1,3-dioxoisoindolin-5-yl)piperazin-1-yl)methyl)piperidin-1-yl)-3-methoxybenzamide] | 4.88 | > 7.30
7 | ++ (++<0.6) | COc1cc(C(=O)N2CCC(CCN3CCN(c4ccc5c(c4)C(=O)N(C4CCC(=O)NC4=O)C5=O)CC3)CC2)ccc1Nc1ncc2c(n1)N(C1CCCC1)CC(F)(F)C(=O)N2C (stereo not shown) [Compound 98, 5-(4-(2-(1-(4-((9-cyclopentyl-7,7-difluoro-5-methyl-6-oxo-6,7,8,9-tetrahydro-5H-pyrimido[4,5-b][1,4]diazepin-2-yl)amino)-3-methoxybenzoyl)piperidin-4-yl)ethyl)piperazin-1-yl)-2-(2,6-dioxopiperidin-3-yl)isoindoline-1,3-dione] | < 5.00 | > 6.40
8 | ++ (++<0.6) | COc1cc(C(=O)NC2CCN(CC3CN(c4cc5c(cc4F)C(=O)N(C4CCC(=O)NC4=O)C5=O)C3)CC2)ccc1Nc1ncc2c(n1)N(C(C)C)CC(F)(F)C(=O)N2C (stereo not shown) [Compound 162, 4-((7,7-difluoro-9-isopropyl-5-methyl-6-oxo-6,7,8,9-tetrahydro-5H-pyrimido[4,5-b][1,4]diazepin-2-yl)amino)-N-(1-((1-(2-(2,6-dioxopiperidin-3-yl)-6-fluoro-1,3-dioxoisoindolin-5-yl)azetidin-3-yl)methyl)piperidin-4-yl)-3-methoxybenzamide] | < 5.00 | > 7.00
9 | ++ (++<0.6) | COc1cc(C(=O)NN2CCC(N3CCN(c4ccc5c(c4)C(=O)N(C4CCC(=O)NC4=O)C5=O)CC3)C2)ccc1Nc1ncc2c(n1)N(C(C)C)CC(F)(F)C(=O)N2C (stereo not shown) [Compound 154, 4-((7,7-difluoro-9-isopropyl-5-methyl-6-oxo-6,7,8,9-tetrahydro-5H-pyrimido[4,5-b][1,4]diazepin-2-yl)amino)-N-(3-(4-(2-(2,6-dioxopiperidin-3-yl)-1,3-dioxoisoindolin-5-yl)piperazin-1-yl)pyrrolidin-1-yl)-3-methoxybenzamide] | < 5.00 | > 7.00
10 | ++ (++<0.6) | COc1cc(C(=O)N2CCC(N3CCC(C#Cc4ccc5c(c4)C(=O)N(C4CCC(=O)NC4=O)C5=O)CC3)CC2)ccc1Nc1ncc2c(n1)N(C1CCCC1)CC(F)(F)C(=O)N2C (stereo not shown) [Compound 182, 5-((1′-(4-((9-cyclopentyl-7,7-difluoro-5-methyl-6-oxo-6,7,8,9-tetrahydro-5H-pyrimido[4,5-b][1,4]diazepin-2-yl)amino)-3-methoxybenzoyl)-[1,4′-piperidin]-4-yl)ethynyl)-2-(2,6-dioxopiperidin-3-yl)isoindoline-1,3-dione] | 5.01 | 
11 | ++ (++<0.6) | COc1cc(C(=O)N[C@H]2CCN(CCOc3cccc4c3C(=O)N(C3CCC(=O)NC3=O)C4=O)C2)ccc1Nc1ncc2c(n1)N(C1CCCC1)CC(F)(F)C(=O)N2C (stereo partly drawn) [Compound 9, 4-((9-cyclopentyl-7,7-difluoro-5-methyl-6-oxo-6,7,8,9-tetrahydro-5H-pyrimido[4,5-b][1,4]diazepin-2-yl)amino)-N-((3S)-1-(2-((2-(2,6-dioxopiperidin-3-yl)-1,3-dioxoisoindolin-4-yl)oxy)ethyl)pyrrolidin-3-yl)-3-methoxybenzamide] | < 5.00 | 

Row | Structure (SMILES) | Activity: ratio of the luminescense value of each Exemplary Compound treatment group to DMSO treatment group (PLK1) | pIC50 (MRC-5 cell line) | pIC50 (NCI-H526 cell line)
12 | COc1cc(C(=O)N2CCC(N3CC4(CCN(c5cc6c(cc5F)C(=O)N(C5CCC(=O)NC5=O)C6=O)CC4)C3)CC2)ccc1Nc1ncc2c(n1)N(C(C)C)CC(F)(F)C(=O)N2C (stereo not shown) [Compound 215, 5-(2-(1-(4-((7,7-difluoro-9-isopropyl-5-methyl-6-oxo-6,7,8,9-tetrahydro-5H-pyrimido[4,5-b][1,4]diazepin-2-yl)amino)-3-methoxybenzoyl)piperidin-4-yl)-2,7-diazaspiro[3.5]nonan-7-yl)-2-(2,6-dioxopiperidin-3-yl)-6-fluoroisoindoline-1,3-dione] | ++ (++<0.6) | 4.79 | > 6.40
13 | COc1cc(C(=O)NC2CCN(C(=O)CCN3CCN(c4ccc5c(c4)CN(C4CCC(=O)NC4=O)C5=O)CC3)CC2)ccc1Nc1ncc2c(n1)N(C(C)C)CC(F)(F)C(=O)N2C (stereo not shown) [Compound 130, 4-((7,7-difluoro-9-isopropyl-5-methyl-6-oxo-6,7,8,9-tetrahydro-5H-pyrimido[4,5-b][1,4]diazepin-2-yl)amino)-N-(1-(3-(4-(2-(2,6-dioxopiperidin-3-yl)-1-oxoisoindolin-5-yl)piperazin-1-yl)propanoyl)piperidin-4-yl)-3-methoxybenzamide] | ++ (++<0.6) | < 5.00 | > 7.52
